Assay results: US10752588B2 (The Broad Institute, Inc., priority 2014, dated 2020)

How the values were obtained:
human D2R/β-arrestin [1] = target: T1, human D2R/β-arrestin (Homo sapiens (Human), UniProt P14416); assay: β-Arrestin agonist assay (PathHunter); assay type: cell-based; conditions: CHO-K1 cell line expressing human D2R/β-arrestin
Description: (§1) The assays can be performed using proper detection reagents either prepared using routine methods known in the art or commercially available (e.g., PathHunter® β-Arrestin Detecting Kit (DiscoveRX)). Cells are grown to the necessary confluence and then detached. The cells are then centrifuged, washed, resuspended, and seeded into a container (e.g., 384-well plate). The cells are incubated (e.g., at 37° C., 5% CO2) for the appropriate period of time (e.g., 24 hours), before various compounds (e.g., a compound of the invention or a control compound) are added to the cells. After incubation of the cells with the compounds, detection reagents (e.g., a buffer containing Emerald II: Galactor-Star as provided DiscoveRX) are added to the cells. The read-out (e.g., luminescence, or fluorescence) is detected using standard equipment.
The detection reagent (9.6 μL, Buffer:Emerald II:Galactor-Star in a 19:5:1 ratio, i.e., 14.06 mL:3.7 mL:0.74 mL=18.5 mL) was then added to the agonist plates.

human D2R/β-arrestin [2] = target: T1, human D2R/β-arrestin; assay: cell-based; conditions: β-arrestin Antagonist, CHO-K1 cell line expressing human D2R/β-arrestin; quinpirole used as agonist
human D2R/β-arrestin [3] = target: T1, human D2R/β-arrestin; assay: cell-based; conditions: cAMP Antagonist, CHO-K1 cell line expressing human D2R/β-arrestin; quinpirole used as agonist
human D2R/β-arrestin [4] = target: T1, human D2R/β-arrestin; assay: Gi/cAMP agonist assay (Lance Ultra cAMP, Forskolin); assay type: cell-based; conditions: CHO-K1 cell line expressing human D2R/β-arrestin
Description: as §1, with “PE Lance Ultra cAMP kit (TRF0263)).” for “PathHunter® β-Arrestin Detecting Kit (DiscoveRX)).”, “Afterwards, cAMP inducing agents (e.g., Forskolin) are added to and incubated with” for “After incubation of”, “before” for “with the compounds,”, “cAMP antibody, such” for “buffer containing Emerald II: Galactor-Star”, “ULight-anti-cAMP solution)” for “provided DiscoveRX)”, “Read-out” for “The read-out”
Compounds were pin-transferred (100 nL) to the cells, and incubated for 10 min. at 37° C. […] Eu-cAMP tracer solution (100, PerkinElmer, […] in 17.64 ml kit buffer) and ULight-anti-cAMP solution (100, 120 μL antibody in 17.88 ml kit buffer) was then added to each well.

T1 sequence (P14416 whole entry): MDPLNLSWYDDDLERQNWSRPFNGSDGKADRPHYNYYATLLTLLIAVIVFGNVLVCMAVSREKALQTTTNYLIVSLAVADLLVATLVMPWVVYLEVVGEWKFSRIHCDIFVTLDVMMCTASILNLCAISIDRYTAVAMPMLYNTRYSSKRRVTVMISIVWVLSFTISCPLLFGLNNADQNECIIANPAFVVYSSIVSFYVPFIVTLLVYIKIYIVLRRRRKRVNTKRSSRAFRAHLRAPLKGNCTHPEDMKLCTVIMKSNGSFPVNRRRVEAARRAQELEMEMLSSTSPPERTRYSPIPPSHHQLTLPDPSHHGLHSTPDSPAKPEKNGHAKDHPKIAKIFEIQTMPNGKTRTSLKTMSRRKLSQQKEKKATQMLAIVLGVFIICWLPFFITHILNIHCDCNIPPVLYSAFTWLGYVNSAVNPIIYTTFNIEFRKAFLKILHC

Row | Structure (SMILES) | EC50 (human D2R/β-arrestin [1]) | IC50 (human D2R/β-arrestin [2]) | IC50 (human D2R/β-arrestin [3]) | EC50 (human D2R/β-arrestin [4])
1 | CC(=O)N(CC1CCN(CCOc2ccccc2)CC1)C(c1ccc(Cl)cc1)c1ccccn1 (stereo not drawn) [Compound 107, N-((4-chlorophenyl)(pyridin-2-yl)methyl)-N-((1-(2-phenoxyethyl)piperidin-4-yl)methyl) acetamide] | > 30 µM | 0.1 to 1 µM | > 30 µM | 0.1 to 1 µM
2 | COc1ccccc1C(NC(=O)C1CCN(CCOc2ccccc2)CC1)c1ccc(Cl)cc1 (stereo not drawn) [Compound 43] | > 30 µM | 1 to 10 µM | > 30 µM | 1 to 10 µM
3 | Fc1ccccc1OCCN1CCC(CNC(c2ccc(Cl)cc2)c2ccccc2F)CC1 (stereo not drawn) [Compound 87, 1-(4-chlorophenyl)-N-((1-(2-(2-fluorophenoxy)ethyl)piperidin-4-yl)methyl)-1-(2-fluorophenyl)methanamine] | > 30 µM | 0.1 to 1 µM | 0.1 to 1 µM | > 30 µM
4 | COc1cccc(C(NCC2CCN(CCOc3ccccc3)CC2)c2ccccn2)c1 (stereo not drawn) [Compound 80, 1-(3-methoxyphenyl)-N-((1-(2-phenoxyethyl)piperidin-4-yl)methyl)-1-(pyridin-2-yl)methanamine] | > 30 µM | 1 to 10 µM | 1 to 10 µM | 0.1 to 1 µM
5 | O=C(NC(c1ccc(F)cc1)c1ccccn1)C1CCN(Cc2cc3ccccc3o2)CC1 (stereo not drawn) [Compound 59] | > 30 µM | > 30 µM | 10 to 30 µM | > 30 µM
6 | O=C(NC(c1ccc(F)cc1)c1ccccn1)C1CCN(Cc2nc3ccccc3o2)CC1 (stereo not drawn) [Compound 60, 1-(benzo[d]oxazol-2-ylmethyl)-N-((4-fluorophenyl)(pyridin-2-yl)methyl)piperidine-4-carboxamide] | > 30 µM | > 30 µM | > 30 µM | > 30 µM
7 | COCCN1CCC(C(=O)NC(c2ccc(Cl)cc2)c2ccccn2)CC1 (stereo not drawn) [Compound 65, N-((4-chlorophenyl)(pyridin-2-yl)methyl)-1-(2-methoxyethyl)piperidine-4-carboxamide] | > 30 µM | 10 to 30 µM | 1 to 10 µM | > 30 µM
8 | O=C(NC(c1cccnc1)c1ccccn1)C1CCN(CCOc2ccccc2)CC1 (stereo not drawn) [Compound 29, 1-(2-phenoxyethyl)-N-(pyridin-2-yl(pyridin-3-yl)methyl)piperidine-4-carboxamide] | > 30 µM | 1 to 10 µM | > 30 µM | 0.1 to 1 µM
9 | COc1cccc(C(NC(=O)C2CCN(CCOc3ccc4ncsc4c3)CC2)c2ccccn2)c1 (stereo not drawn) [Compound 82, 1-(2-(benzo[d]thiazol-6-yloxy)ethyl)-N-((3-methoxyphenyl)(pyridin-2-yl)methyl)piperidine-4-carboxamide] | > 30 µM | 10 to 30 µM | 1 to 10 µM | > 30 µM
10 | O=C(NC(c1ccc2c(c1)OC(F)(F)O2)c1ccccn1)C1CCN(CCOc2ccc(F)cc2F)CC1 (single isomer, unassigned) [Compound 130a, N-((2,2-difluorobenzo[d][1,3]dioxol-5-yl)(pyridin-2-yl)methyl)-1-(2-(2,4-difluorophenoxy)ethyl)piperidine-4-carboxamide] | > 30 µM | 1 to 10 µM | 0.1 to 1 µM | > 30 µM
11 | O=C(NC(c1ccc(Cl)cc1)c1ccccc1F)C1CCN(CCOc2cc(F)ccc2F)CC1 (stereo not drawn) [Compound 123, N-((4-chlorophenyl)(2-fluorophenyl)methyl)-1-(2-(2,5-difluorophenoxy)ethyl) piperidine-4-carboxamide] | > 30 µM | 0.1 to 1 µM | > 30 µM | < 0.1 µM

Next, values leading:

Row | EC50 (human D2R/β-arrestin [1]) | IC50 (human D2R/β-arrestin [2]) | IC50 (human D2R/β-arrestin [3]) | EC50 (human D2R/β-arrestin [4]) | Structure (SMILES)
12 | 0.1 to 1 µM | 0.1 to 1 µM | > 30 µM | < 0.1 µM | O=C(NC(c1ccc2c(c1)OC(F)(F)O2)c1ccccn1)C1CCN(CCOc2ccccc2F)CC1 (stereo not drawn) [Compound 94, N-((2,2-difluorobenzo[d][1,3]dioxol-5-yl)(pyridin-2-yl)methyl)-1-(2-(2-fluorophenoxy)ethyl)piperidine-4-carboxamide]
13 | > 30 µM | 10 to 30 µM | 10 to 30 µM | > 30 µM | O=C(NC(c1ccc(F)cc1)c1ccccn1)C1CCN(CC2Cc3ccccc3C2)CC1 (stereo not drawn) [Compound 61, 1-((2,3-dihydro-1H-inden-2-yl)methyl)-N-((4-fluorophenyl)(pyridin-2-yl)methyl)piperidine-4-carboxamide]
14 | > 30 µM | 1 to 10 µM | 0.1 to 1 µM | > 30 µM | O=C(NC(c1ccc(Cl)cc1)c1ccccn1)C1CCN(CCOC2CCCCC2)CC1 (stereo not drawn) [Compound 17, N-((4-chlorophenyl) (pyridin-2-yl)methyl)-1-(2-(cyclohexyloxy)ethyl) piperidine-4-carboxamide]
15 | > 30 µM | 0.1 to 1 µM | 0.1 to 1 µM | < 0.1 µM | CN(CC1CCN(CCOc2ccccc2F)CC1)C(c1ccc(F)cc1)c1ccccn1 (stereo not drawn) [Compound 75, N-((1-(2-(2-fluorophenoxy)ethyl)piperidin-4-yl)methyl)-1-(4-fluorophenyl)-N-methyl-1-(pyridin-2-yl)methanamine]
16 | > 30 µM | < 0.1 µM | < 0.1 µM | > 30 µM | CC(C1CCN(CCOc2ccccc2)CC1)N(C)C(c1ccc(Cl)cc1)c1ccccn1 (single isomer, unassigned) [Compound 97c, N-((4-chlorophenyl)(pyridin-2-yl)methyl)-N-methyl-1-(1-(2-phenoxyethyl)piperidin-4-yl)ethan-1-amine]
17 | > 30 µM | < 0.1 µM | < 0.1 µM | > 30 µM | O=C(NC(c1ccc(Cl)cc1)c1ccccn1)C1CCN(CCOc2ccccc2OC(F)(F)F)CC1 (stereo not drawn) [Compound 68, N-((4-chlorophenyl)(pyridin-2-yl)methyl)-1-(2-(2-(trifluoromethoxy)phenoxy)ethyl) piperidine-4-carboxamide]
18 | > 30 µM | < 0.1 µM | < 0.1 µM | > 30 µM | CC(C)N(CC1CCN(CCOc2ccccc2F)CC1)C(c1ccc(Cl)cc1)c1ccccn1 (single isomer, unassigned) [Compound 133a, N-((4-chlorophenyl)(pyridin-2-yl)methyl)-N-((1-(2-(2-fluorophenoxy)ethyl)piperidin-4-yl)methyl)propan-2-amine]
19 | > 30 µM | 1 to 10 µM | > 30 µM | 1 to 10 µM | COc1ccc(OCCN2CCC(C(=O)NC(c3ccc(Cl)cc3)c3ccccn3)CC2)cc1 (stereo not drawn) [Compound 13, N-((4-chlorophenyl)(pyridin-2-yl)methyl)-1-(2-(4-methoxyphenoxy)ethyl) piperidine-4-carboxamide]
20 | > 30 µM | 0.1 to 1 µM | 0.1 to 1 µM | > 30 µM | O=C(NC(c1ccc(Cl)cc1)c1ccccn1)C1CCN(CCOc2ccccc2)CC1 (single isomer, unassigned) [Compound 63b, N-((4-chlorophenyl)(pyridin-2-yl)methyl)-1-(2-phenoxyethyl)piperidine-4-carboxamide]
21 | > 30 µM | 1 to 10 µM | 0.1 to 1 µM | > 30 µM | O=C(NC(c1ccc(F)cc1)c1ccc(F)cc1)C1CCN(CCOc2ccccc2)CC1 [Compound 47, N-(bis(4-fluorophenyl)methyl)-1-(2-phenoxyethyl)piperidine-4-carboxamide]
22 | > 30 µM | 1 to 10 µM | 10 to 30 µM | 0.1 to 1 µM | Fc1ccc(F)c(OCCN2CCC(CNC(c3ccc(Cl)cc3)c3ccccn3)CC2)c1 (single isomer, unassigned) [Compound 89b, 1-(4-chlorophenyl)-N-((1-(2-(2,5-difluorophenoxy)ethyl)piperidin-4-yl)methyl)-1-(pyridin-2-yl)methanamine]
23 | > 30 µM | 1 to 10 µM | > 30 µM | 0.1 to 1 µM | O=C(NC(c1ccc(Cl)cc1)c1ccc(F)cn1)C1CCN(CCOc2ccccc2)CC1 (stereo not drawn) [Compound 116, N-((4-chlorophenyl)(5-fluoropyridin-2-yl)methyl)-1-(2-phenoxyethyl)piperidine-4-carboxamide]
24 | > 30 µM | 0.1 to 1 µM | 0.1 to 1 µM | > 30 µM | CC(C1CCN(CCOc2ccccc2)CC1)N(C)C(c1ccc(Cl)cc1)c1ccccn1 (single isomer, unassigned) [Compound 97d, N-((4-chlorophenyl)(pyridin-2-yl)methyl)-N-methyl-1-(1-(2-phenoxyethyl)piperidin-4-yl)ethan-1-amine]
